Laboratory results as given in PMC10936776, “Structural and functional characterization of AfsR, an SARP family transcriptional activator of antibiotic biosynthesis in Streptomyces” (PLOS Biology, 2024).

Assays:
[1] = target: T1, phosphorylated AfsR (phos-AfsR) (Streptomyces coelicolor, UniProt P25941); assay: in vitro MangoIII transcription assay after preincubation; format: biochemical; conditions: 500 nM phosphorylated AfsR, 1 mM ATPγS preincubation; activator
T1 construct: full-length, 993 residues, pET28a (His-tagged), E. coli BL21(DE3); dephosphorylated, then phosphorylated in vitro by AfsKΔC (pS22, pT337, pS391, pT506, pS953 by MS), SEC

[2] = target: T2, AfsR (dephosphorylated AfsR) (Streptomyces coelicolor, UniProt P25941); assay: as above; format: biochemical; conditions: 500 nM dephosphorylated AfsR, 1 mM ATPγS preincubation 10 min 30 °C, RNAP-σHrdB, RbpA, CarD; activator
T2 construct: full-length, 993 residues, pET28a (His-tagged), E. coli BL21(DE3), Ni-NTA and SEC; wild type treated with lambda phosphatase (E. coli protein carries pT337); mainly monomer
T2 sequence (P25941 whole entry): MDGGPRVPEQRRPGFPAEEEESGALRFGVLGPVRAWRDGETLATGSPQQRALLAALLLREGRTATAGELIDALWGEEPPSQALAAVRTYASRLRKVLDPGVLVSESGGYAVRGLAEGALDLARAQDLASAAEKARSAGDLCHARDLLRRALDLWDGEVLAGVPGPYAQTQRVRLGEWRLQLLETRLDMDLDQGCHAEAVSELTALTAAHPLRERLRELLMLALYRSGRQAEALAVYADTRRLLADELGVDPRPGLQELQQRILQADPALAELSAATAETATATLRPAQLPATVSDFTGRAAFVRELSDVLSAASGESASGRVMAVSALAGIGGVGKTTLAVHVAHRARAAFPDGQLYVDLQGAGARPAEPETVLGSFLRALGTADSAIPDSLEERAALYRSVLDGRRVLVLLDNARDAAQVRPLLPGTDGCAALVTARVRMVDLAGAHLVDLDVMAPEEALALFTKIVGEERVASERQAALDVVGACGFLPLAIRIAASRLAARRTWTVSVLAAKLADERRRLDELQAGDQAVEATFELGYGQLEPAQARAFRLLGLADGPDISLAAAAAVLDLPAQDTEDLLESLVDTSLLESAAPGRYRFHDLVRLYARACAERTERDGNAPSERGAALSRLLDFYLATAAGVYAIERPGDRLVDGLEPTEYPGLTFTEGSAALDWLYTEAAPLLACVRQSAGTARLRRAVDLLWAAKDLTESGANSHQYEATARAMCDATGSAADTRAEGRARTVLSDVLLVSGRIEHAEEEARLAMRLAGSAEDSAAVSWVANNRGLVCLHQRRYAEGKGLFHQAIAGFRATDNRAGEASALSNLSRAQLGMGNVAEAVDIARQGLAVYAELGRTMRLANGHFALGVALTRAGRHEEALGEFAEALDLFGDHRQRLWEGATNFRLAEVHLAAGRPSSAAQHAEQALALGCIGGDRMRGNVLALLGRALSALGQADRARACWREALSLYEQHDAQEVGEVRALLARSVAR

T1 sequence (P25941 whole entry): as above

Nc1ncnc2c1ncn2[C@@H]1O[C@H](COP(=O)(O)OP(=O)(O)OP(O)(O)=S)[C@@H](O)[C@H]1O [ATPγS]
transcription activation [1]: exhibits partial activation in response to non-hydrolysable ATPγS | transcription activation [2]: comparable effect of preincubation with a non-hydrolyzable ATP analogue, ATPγS
